Where a name gives a salt, the structure may show the parent alone.
Legend:
MOR [1] = target: T1, MOR (Rattus norvegicus, UniProt P33535); test: competition radioligand binding, rat brain membranes, [3H]DAMGO; conditions: for Ki: rat brain membranes, read-out: opioid receptor binding Ki MOR
T1 construct: Membranes were prepared from Sprague-Dawley rat brains or guinea-pig brains according to the described procedures; tissue Labortierkunde und Laborgenetik, Medizinische Universität Wien; host or cells: Sprague-Dawley rat brain without cerebella
Experimental: (§1) Competition binding assays using rat brain (MOR and DOR) and guinea-pig brain (KOR) membranes (Table 1) were performed according to published procedures.[44],[49] […] In addition, we have assessed binding at the human opioid receptors stably transfected in Chinese hamster ovary (CHO) cells (Table S1).
(§2) Membranes were prepared from Sprague-Dawley rat brains or guinea-pig brains according to the described procedures.[44],[45] Brains without cerebella were homogenized on ice in 5 vol/wt of ice-cold 50 mM Tris-HCl buffer (pH 7.4) and diluted in 30 vol/wt of the same buffer. After centrifugation at 40 000g for 20 min at 4 °C, the pellets were resuspended in 30 vol/wt of 50 mM Tris-HCl buffer (pH 7.4) and incubated at 37 °C for 30 min. The centrifugation step described above was repeated, and the final pellets were resuspended in 5 vol/wt of 50 mM Tris-HCl buffer (pH 7.4) containing 0.32 M sucrose and stored at −80 °C until use.
(§3) Rat brain membranes were incubated with either [^3H]DAMGO (1 nM, 45 min, 35 °C) or [^3H][Ile^5,6]deltorphin II (0.5 nM, 45 min, 35 °C) for labeling MOR or DOR receptors, respectively. Guinea-pig brain membranes were incubated with [^3H]U69,593 (1 nM, 30 min, 30 °C) for labeling KOR. Binding assays with CHO cell membranes were conducted at 25 °C for 60 min using [^3H]DAMGO (1 nM) or [^3H]diprenorphine (0.2 nM) for labeling MOR or DOR, respectively. Nonspecific binding was determined using 10 μM naloxone (rodent brain) or 1–10 μM of the unlabeled counterpart of each radioligand (CHO cells). Reactions were terminated by rapid filtration through Whatman glass fiber GF/C filters. Filters were washed three times with 5 mL of ice-cold 50 mM Tris-HCl buffer (pH 7.4) using a Brandel M24R cell harvester (Gaithersburg, MD). Radioactivity retained on the filters was counted by liquid scintillation counting using a Beckman Coulter LS6500 (Beckman Coulter Inc., Fullerton, CA). All binding experiments were performed in duplicate and repeated at least three times.
(§4) Data were analyzed and graphically processed using the GraphPad Prism 5.0 Software (GraphPad Prism Software Inc., San Diego, CA). For in vitro assays, inhibition constant (Ki in nM), potency (EC50 in nM), and efficacy (% stimulation) values were determined from concentration–response curves by nonlinear regression analysis. The Ki values were determined by the method of Cheng and Prusoff.[66] In the [^35S]GTPγS binding assays, efficacy was determined relative to the reference full opioid agonists, DAMGO (MOR), DPDPE (DOR), and U69,593 (KOR). In vitro data are presented as mean ± SEM of three to four independent experiments each performed in duplicate. […] Each experimental group included six to seven mice. Data were statistically evaluated using one-way ANOVA with Tukey’s post hoc test for multiple comparisons with significance set at P < 0.05.

DOR [2] = target: T2, DOR (Rattus norvegicus, UniProt P33533); test: competition radioligand binding, rat brain membranes, [3H][Ile5,6]deltorphin II; conditions: rat brain membranes; read-out: opioid receptor binding Ki DOR
T2 construct: Membranes were prepared from Sprague-Dawley rat brains or guinea-pig brains according to the described procedures; tissue Labortierkunde und Laborgenetik, Medizinische Universität Wien; host or cells: Sprague-Dawley rat brain without cerebella
Experimental: as §1, §2, §3, §4

KOR [3] = target: T3, KOR (Cavia porcellus, UniProt P41144); test: competition radioligand binding, guinea-pig brain membranes, [3H]U69,593; conditions: guinea-pig brain membranes; read-out: opioid receptor binding Ki KOR
T3 construct: Membranes were prepared from Sprague-Dawley rat brains or guinea-pig brains according to the described procedures; tissue Labortierkunde und Laborgenetik, Medizinische Universität Wien; host or cells: guinea-pig brain without cerebella
Experimental: as §1, §2, §3, §4

MOR [4] = target: T4, MOR (Homo sapiens, UniProt P35372); test: [35S]GTPγS binding assay, CHO-hMOR membranes; format: biochemical; conditions: for EC50: [35S]GTPγS, CHO human MOR membranes, read-out: MOR EC50; for functional profile at MOR (full/partial agonist): full agonist ≥85% of the response to DAMGO; for Emax: relative to reference full agonist DAMGO, read-out: MOR % stim.
T4 construct: host or cells: CHO (CHO-hMOR)
Experimental: (§5) Efficacies are presented as percentage stimulation relative to the standard full agonists, [D-Ala^2,N-Me-Phe4,Gly-ol^5]enkephalin (DAMGO for MOR),[53] [D-Pen^2,D-Pen^5]enkephalin (DPDPE for DOR)[54] and N-methyl-2-phenyl-N-[(5R,7S,8S)-7-(pyrrolidin-1-yl)-1-oxaspiro[4.5]dec-8-yl]acetamide (U69,593 for KOR).[55]
(§6) Membranes from CHO cells expressing human opioid receptors were prepared in 50 mM Tris-HCl buffer (pH 7.7) according to a previously described procedure.[64] Cells expressing human opioid receptors grown at confluence were removed from the culture plates by scraping, homogenized in 50 mM Tris buffer (pH 7.7), using a Polytron homogenizer, then centrifuged once and washed by an additional centrifugation at 27 000g for 15 min, at 4 °C. The final pellet was resuspended in Tris buffer and stored at −80 °C until use. Protein content of brain and cell membrane preparation homogenates was determined by the method of Bradford using bovine serum albumin as the standard.[65]
(§7) Binding of [^35S]GTPγS to membranes from CHO cells stably expressing the human opioid receptors was conducted according to the published procedures.[49],[64] Cell membranes (5–10 μg) in 20 mM HEPES, 10 mM MgCl2, and 100 mM NaCl (pH 7.4) were incubated with 0.05 nM [^35S]GTPγS, 10 μM GDP, and various concentrations of test compound in a final volume of 1 mL, for 60 min at 25 °C. Nonspecific binding was determined using 10 μM GTPγS, and the basal binding was determined in the absence of test ligand. Samples are filtered over glass Whatman glass GF/B fiber filters and counted as described for binding assays. All experiments were performed in duplicate and repeated at least three times.
as §4

DOR [5] = target: T5, DOR (Homo sapiens, UniProt P41143); test: [35S]GTPγS binding assay, CHO-hDOR membranes; format: biochemical; conditions: for increased agonist potency at DOR vs MOR: [35S]GTPγS EC50; for EC50: [35S]GTPγS, CHO human DOR membranes; for Emax: relative to reference full agonist DPDPE, read-out: DOR % stim.
T5 construct: host or cells: CHO (CHO-hDOR)
Experimental: as §5, §6, §7, §4

KOR [6] = target: T6, KOR (Homo sapiens, UniProt P41145); test: [35S]GTPγS binding assay, CHO-hKOR membranes; format: biochemical; conditions: for EC50: [35S]GTPγS, CHO human KOR membranes, read-out: KOR EC50; for functional profile at KOR (full/partial agonist): partial agonist <85% of the response to U69,593; for Emax: relative to reference full agonist U69,593, read-out: KOR % stim.
T6 construct: host or cells: CHO (CHO-hKOR)
Experimental: as §5, §6, §7, §4

male CD1 mice = test: acetic acid-induced writhing assay after sc administration; format: in vivo, mouse; conditions: Mus musculus, 0.5 h, read-out: ED50 (95% CI), mice, sc, inhibition of writhing 30 min after drug administration
Experimental: Solutions of test compounds were prepared in sterile physiological 0.9% saline and further diluted to working doses in saline solution. Test compounds or saline (control) were administered by sc route in a volume of 10 μL/1 g of body weight. All doses are expressed in terms of salts. Separate groups of mice received the respective dose of compound, and individual mice were only used once for behavioral testing.
Writhing was induced in male CD1 mice by ip injection of a 0.6% acetic acid aqueous solution as described previously.[48],[62] Groups of mice were administered sc different doses of test compound or saline (control), and 5 min prior to testing (25 min after drug or saline), each animal received an ip injection of acetic acid solution. Each mouse was placed in individual transparent Plexiglas chambers, and the number of writhes was counted during a 10 min observation period. […] For the antagonism study, naloxone methiodide was sc co-administered with the respective opioid agonist, and writhing was assessed as described above.
as §4

CO[C@@]12CC[C@@H](N[C@H](C(=O)O)C(C)C)[C@@H]3Oc4c(O)ccc5c4[C@@]31CCN(C)[C@@H]2C5 [Compound 7b, (2S)-2-[(4,5α-Epoxy-3-hydroxy-14β-methoxy-17-methylmorphinan-6β-yl)amino]-3-methylbutyric Acid Dihydrochloride]
Ki (MOR [1]): 3.04 ± 0.12 nM
Ki (DOR [2]): 3.52 ± 0.04 nM
Ki (KOR [3]): 305 ± 39 nM
EC50 (MOR [4]): 11.7 ± 5.7 nM
functional profile at MOR (full/partial agonist) (MOR [4]): partial agonist
Emax (MOR [4]): ~80%
increased agonist potency at DOR vs MOR (DOR [5]): 2–4 times
EC50 (DOR [5]): 5.73 ± 2.48 nM
Emax (DOR [5]): 96 ± 9%
EC50 (KOR [6]): 1120 ± 411 nM
functional profile at KOR (full/partial agonist) (KOR [6]): partial agonist
Emax (KOR [6]): 68 ± 10%
ED50 (male CD1 mice): 0.117 mg/kg

CO[C@@]12CC[C@@H](N[C@@H](Cc3ccc(O)cc3)C(=O)O)[C@@H]3Oc4c(O)ccc5c4[C@@]31CCN(C)[C@@H]2C5.Cl.Cl [Compound 9b, (2S)-2-[(4,5α-Epoxy-3-hydroxy-14β-methoxy-17-methylmorphinan-6β-yl)amino]-3-(4-hydroxyphenyl)propionic Acid Dihydrochloride]
Ki (MOR [1]): 3.2 ± 0.55 nM
Ki (DOR [2]): 3.89 ± 0.64 nM
Ki (KOR [3]): 186 ± 33 nM
EC50 (MOR [4]): 24.7 ± 9.8 nM
Emax (MOR [4]): 93 ± 7%
increased agonist potency at DOR vs MOR (DOR [5]): 2–4 times
EC50 (DOR [5]): 6.23 ± 1.03 nM
Emax (DOR [5]): 95 ± 0.8%
EC50 (KOR [6]): 774 ± 57 nM
Emax (KOR [6]): 60 ± 3%

CO[C@@]12CC[C@H](N[C@@H](Cc3c[nH]c4ccccc34)C(=O)O)[C@@H]3Oc4c(O)ccc5c4[C@@]31CCN(C)[C@@H]2C5 [Compound 10a, (2S)-2-[(4,5α-Epoxy-3-hydroxy-14β-methoxy-17-methylmorphinan-6α-yl)-amino]-3-(1H-indolo-3yl)propionic Acid Dihydrochloride]
Ki (MOR [1]): 0.36 ± 0.01 nM
Ki (DOR [2]): 1.02 ± 0.12 nM
Ki (KOR [3]): 25.1 ± 9.3 nM
EC50 (MOR [4]): 0.51 ± 0.34 nM
Emax (MOR [4]): 93 ± 9%
EC50 (DOR [5]): 2.52 ± 1.41 nM
Emax (DOR [5]): 102 ± 8%
EC50 (KOR [6]): 70.1 ± 20.5 nM
Emax (KOR [6]): 61 ± 8%

CO[C@@]12CC[C@@H](N[C@@H](CC(=O)O)C(=O)O)[C@@H]3Oc4c(O)ccc5c4[C@@]31CCN(C)[C@@H]2C5 [Compound 13b, (2S)-2-[(4,5α-Epoxy-3-hydroxy-14β-methoxy-17-methylmorphinan-6β-yl)amino]butanedioic Acid Dihydrochloride]
Ki (MOR [1]): 3.42 ± 0.05 nM
Ki (DOR [2]): 22.6 ± 2.2 nM
Ki (KOR [3]): 351 ± 43 nM
EC50 (MOR [4]): 1.45 ± 0.01 nM
functional profile at MOR (full/partial agonist) (MOR [4]): partial agonists
Emax (MOR [4]): ~70%
EC50 (DOR [5]): 11.8 ± 2.2 nM
Emax (DOR [5]): 101 ± 1%
EC50 (KOR [6]): 753 ± 358 nM
Emax (KOR [6]): 49 ± 7%

CO[C@@]12CC[C@H](N[C@@H](C(=O)O)C(C)C)[C@@H]3Oc4c(O)ccc5c4[C@@]31CCN(C)[C@@H]2C5 [Compound 16a]
Ki (MOR [1]): 1.7 ± 0.09 nM
increase in MOR binding affinity vs comparator (MOR [1]; rat brain, 17b vs 4b, 16a/b vs 7a/b, 22a/b vs 7a, 7b and 9b, 14a vs 14b): 2–3 times
Ki (DOR [2]): 1.93 ± 0.24 nM
Ki (KOR [3]): 202 ± 3 nM
EC50 (MOR [4]): 4.51 ± 2.35 nM
Emax (MOR [4]): 105 ± 4%
increased agonist potency at DOR vs MOR (DOR [5]): ca. 4 times
EC50 (DOR [5]): 1.12 ± 0.69 nM
Emax (DOR [5]): 93 ± 4%
EC50 (KOR [6]): 2220 ± 818 nM
functional profile at KOR (full/partial agonist) (KOR [6]): full agonists
Emax (KOR [6]): 96 ± 16%

CO[C@@]12CC[C@@H](NCCC(=O)O)[C@@H]3Oc4c(O)ccc5c4[C@@]31CCN(C)[C@@H]2C5 [Compound 20b, 3-[(4,5α-Epoxy-3-hydroxy-14β-methoxy-17-methylmorphinan-6β-yl)amino]propionic Acid Dihydrochloride]
Ki ratio MOR/DOR/KOR (MOR [1]; from Ki in rat (MOR, DOR) and guinea-pig (KOR) brain membranes): 1/13/69
Ki (MOR [1]): 1.04 ± 0.04 nM
Ki (DOR [2]): 13.9 ± 1.7 nM
Ki (KOR [3]): 71.4 ± 4.6 nM
EC50 (MOR [4]): 5.74 ± 0.47 nM
Emax (MOR [4]): ~80%
EC50 (DOR [5]): 20.1 ± 10.7 nM
Emax (DOR [5]): 99 ± 3%
EC50 (KOR [6]): 622 ± 311 nM
Emax (KOR [6]): 67 ± 12%

CO[C@@]12CC[C@@H](NCCCC(=O)O)[C@@H]3Oc4c(O)ccc5c4[C@@]31CCN(C)[C@@H]2C5 [Compound 21b]
Ki (MOR [1]): 1.41 ± 0.13 nM
Ki (DOR [2]): 6.61 ± 0.67 nM
Ki (KOR [3]): 147 ± 13 nM
EC50 (MOR [4]): 12.3 ± 6.8 nM
Emax (MOR [4]): 86 ± 7%
increased agonist potency at DOR vs MOR (DOR [5]): 2–4 times
EC50 (DOR [5]): 6.06 ± 1.07 nM
Emax (DOR [5]): 103 ± 6%
EC50 (KOR [6]): 3400 ± 1980 nM
functional profile at KOR (full/partial agonist) (KOR [6]): full agonists
Emax (KOR [6]): 74 ± 5%

Reference: publication PMC6348443 (Journal of Medicinal Chemistry, 2018)
